In US10919916B2, “Boron-containing small molecules” (Bill & Melinda Gates Foundation, priority 2016, dated 2021):
pEC50: −log10 of the molar value. Values after ≈ are worked out from the molar mass of the structure shown. Where two headings read alike, the source gives them in different places.

Assays:
Assay type in all cases: cell-based
[1] = test system: Streptococcus pneumoniae (ATCC 49619); assay: Antibacterial MIC assay (microbroth dilution, CLSI)
Summary of the method: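 S. pneumoniae at 5×10^5 CFU/mL (from 0.5 McFarland saline suspension) was tested against 2-fold serial compound dilutions in cation-adjusted Mueller-Hinton broth plus 3% lysed horse blood, per CLSI M07-A10/M100-S25 microdilution guidelines.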

[2] = test system: Wolbachia pipientis in C6/36 cell line; assay: Anti-Wolbachia high-content assay; details: read-out: EC50 Wolbachia pipientis in C6/36 cell line
Protocol: After 15 minutes, all media was removed from each well and fresh media (no stain) was added. Imaging of each well was accomplished using a Perkin Elmer Operetta high-content imaging system. Five fields per well were imaged using a confocal 60× objective with the Fluorescein filter (excitation filter: 460-490 nm; emission filter: 500-550 nm). Images were analyzed using the Perkin Elmer Harmony software to score each intact cell on the basis of texture complexity of the cytoplasm. Full details can be found in: […]. et al, J. Biomol.

[3] = test system: Staphylococcus aureus, MRSA (ATCC 33591); assay: Antibacterial MIC assay (microbroth dilution, CLSI); details: read-out: MIC Staphylococcus aureus, MRSA (ATCC 33591)
Summary of the method: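 Compound 2-fold dilution series tested against 5×10^5 CFU/mL bacteria prepared from 0.5 McFarland saline suspensions of overnight colonies. Medium was cation-adjusted Mueller-Hinton broth, supplemented with 3% lysed horse blood for the fastidious pneumococcus. Protocol followed CLSI M07-A10 and M100-S25.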

[4] = ATCC49619, microbroth dilution, 3% lysed horse blood, 35° C. for 16-20 hours, read-out: MIC Streptococcus pneumoniae (ATCC 49619)
[5] = C6/36 (wAlbB) cells, 7 days at 26° C., 50% reduction of Wolbachia
[6] = microbroth dilution, cation-adjusted Mueller-Hinton broth, 35° C. for 16-20 hours
[7] = ATCC49619, read-out: MIC Streptococcus pneumoniae (ATCC 49619)

Structure (SMILES) | MIC [1, 4] [µg/mL] | pEC50 [2, 5] | MIC [3, 6] [µg/mL] | MIC [1, 7] [µg/mL] | pEC50 ([2]; C6/36, […]) | MIC [3] [µg/mL]
C=C[C@]1(C)C[C@@H](OC(=O)COc2ccc3c(c2F)B(O)OC3CNC(=O)OC(C)(C)C)[C@]2(C)[C@H](C)CC[C@]3(CCC(=O)[C@H]32)[C@@H](C)[C@@H]1O (stereo partly drawn) [Compound 28, (3aR,4R,5R,7S,8S,9R,9aS,12R)-8-hydroxy-4,7,9,12-tetramethyl-3-oxo-7-vinyldecahydro-4,9a-propanocyclopenta[8]annulen-5-yl 2-((3-(((tert-butoxycarbonyl)amino)methyl)-7-fluoro-1-hydroxy-1,3-dihydrobenzo[c][1,2]oxaborol-6-yl)oxy)acetate] | 0.5 to 2 (≈ 0.76 to 3.04 µM) | < 6.00 | 0.5 to 2 (≈ 0.76 to 3.04 µM) | – | – | –
C=C[C@]1(C)C[C@@H](OC(=O)COc2ccc3c(c2)B(O)OC3CC(=O)OC(C)(C)C)[C@]2(C)[C@H](C)CC[C@]3(CCC(=O)[C@H]32)[C@@H](C)[C@@H]1O (stereo partly drawn) [Compound 24, tert-Butyl 2-(1-hydroxy-6-(2-(((3aR,4R,5R,7S,8S,9R,9aS,12R)-8-hydroxy-4,7,9,12-tetramethyl-3-oxo-7-vinyldecahydro-4,9a-propanocyclopenta[8]annulen-5-yl)oxy)-2-oxoethoxy)-1,3-dihydrobenzo[c][1,2]oxaborol-3-yl)acetate] | 0.5 to 2 (≈ 0.801 to 3.2 µM) | < 6.00 | < 0.25 | – | – | –
C=C[C@]1(C)C[C@@H](OC(=O)COc2ccc3c(c2)B(O)N(S(C)(=O)=O)N=C3)[C@]2(C)[C@H](C)CC[C@]3(C[C@H](F)C(=O)[C@H]32)[C@@H](C)[C@@H]1O [Compound 79, (2S,3aR,4R,5R,7S,8S,9R,9aS,12R)-2-fluoro-8-hydroxy-4,7,9,12-tetramethyl-3-oxo-7-vinyldecahydro-4,9a-propanocyclopenta[8]annulen-5-yl 2-((1-hydroxy-2-(methylsulfonyl)-1,2-dihydrobenzo[d][1,2,3]diazaborinin-7-yl)oxy)acetate] | 0.5 to 2 (≈ 0.808 to 3.23 µM) | 7.25 | 0.5 to 2 (≈ 0.808 to 3.23 µM) | – | – | –
C=C[C@]1(C)C[C@@H](OC(=O)COc2ccc3c(c2)B(O)N(C)N=C3)[C@]2(C)[C@H](C)CC[C@]3(C[C@H](O)C(=O)[C@H]32)[C@@H](C)[C@@H]1O [Compound 82, (2S,3aR,4R,5R,7S,8S,9R,9aS,12R)-2,8-dihydroxy-4,7,9,12-tetramethyl-3-oxo-7-vinyldecahydro-4,9a-propanocyclopenta[8]annulen-5-yl 2-((1-hydroxy-2-methyl-1,2-dihydrobenzo[d][1,2,3]diazaborinin-7-yl)oxy)acetate] | < 0.25 | 7.44 | 0.5 to 2 (≈ 0.905 to 3.62 µM) | – | – | –
C=C[C@]1(C)C[C@@H](OC(=O)COc2ccc3c(c2)B(O)OC3CNS(C)(=O)=O)[C@]2(C)[C@H](C)CC[C@]3(CCC(=O)[C@H]32)[C@@H](C)[C@@H]1O (stereo partly drawn) [Compound 23, (3aR,4R,5R,7S,8S,9R,9aS,12R)-8-hydroxy-4,7,9,12-tetramethyl-3-oxo-7-vinyldecahydro-4,9a-propanocyclopenta[8]annulen-5-yl 2-((1-hydroxy-3-(methylsulfonamidomethyl)-1,3-dihydrobenzo[c][1,2]oxaborol-6-yl)oxy)acetate] | 0.5 to 2 (≈ 0.81 to 3.24 µM) | 6.21 | 0.5 to 2 (≈ 0.81 to 3.24 µM) | – | – | –
C=C[C@]1(C)C[C@@H](OC(=O)COc2cc(CNC(=O)OC(C)(C)C)c3c(c2Cl)B(O)OC3)[C@]2(C)[C@H](C)CC[C@]3(CCC(=O)[C@H]32)[C@@H](C)[C@@H]1O [Compound 7, (3aR,4R,5R,7S,8S,9R,9aS,12R)-8-hydroxy-4,7,9,12-tetramethyl-3-oxo-7-vinyldecahydro-4,9a-propanocyclopenta[8]annulen-5-yl 2-((4-(((tert-butoxycarbonyl)amino)methyl)-7-chloro-1-hydroxy-1,3-dihydrobenzo[c][1,2]oxaborol-6-yl)oxy)acetate] | – | – | – | 4 to 32 (≈ 5.93 to 47.5 µM) | 6.37 | 0.5 to 2 (≈ 0.742 to 2.97 µM)
C=C[C@]1(C)C[C@@H](OC(=O)COc2ccc3c(c2F)B(O)OC3)[C@]2(C)[C@H](C)CC[C@]3(C[C@H](F)C(=O)[C@H]32)[C@@H](C)[C@@H]1O [Compound 39, (2S,3aR,4R,5R,7S,8S,9R,9aS,12R)-2-fluoro-8-hydroxy-4,7,9,12-tetramethyl-3-oxo-7-vinyldecahydro-4,9a-propanocyclopenta[8]annulen-5-yl 2-((7-fluoro-1-hydroxy-1,3-dihydrobenzo[c][1,2]oxaborol-6-yl)oxy)acetate] | 0.5 to 2 (≈ 0.915 to 3.66 µM) | 7.08 | < 0.25 | – | – | –
C=C[C@]1(C)C[C@@H](OC(=O)COc2ccc3c(c2)B(O)OC3CC(=O)O)[C@]2(C)[C@H](C)CC[C@]3(CCC(=O)[C@H]32)[C@@H](C)[C@@H]1O (stereo partly drawn) [Compound 25, 2-(1-hydroxy-6-(2-(((3aR,4R,5R,7S,8S,9R,9aS,12R)-8-hydroxy-4,7,9,12-tetramethyl-3-oxo-7-vinyldecahydro-4,9a-propanocyclopenta[8]annulen-5-yl)oxy)-2-oxoethoxy)-1,3-dihydrobenzo[c][1,2]oxaborol-3-yl)acetic acid] | 0.5 to 2 (≈ 0.88 to 3.52 µM) | < 6.00 | 0.5 to 2 (≈ 0.88 to 3.52 µM) | – | – | –
C=C[C@]1(C)C[C@@H](OC(=O)COc2ccc3c(c2F)B(O)OC3)[C@]2(C)[C@H](C)CC[C@]3(C[C@H](O)C(=O)[C@H]32)[C@@H](C)[C@@H]1O [Compound 36, (2S,3aR,4R,5R,7S,8S,9R,9aS,12R)-2,8-dihydroxy-4,7,9,12-tetramethyl-3-oxo-7-vinyldecahydro-4,9a-propanocyclopenta[8]annulen-5-yl 2-((7-fluoro-1-hydroxy-1,3-dihydrobenzo[c][1,2]oxaborol-6-yl)oxy)acetate] | 0.5 to 2 (≈ 0.918 to 3.67 µM) | 6.71 | < 0.25 | – | – | –
C=C[C@]1(C)C[C@@H](OC(=O)COc2ccc3c(c2)B(O)N(S(C)(=O)=O)N=C3)[C@]2(C)[C@H](C)CC[C@]3(C[C@H](O)C(=O)[C@H]32)[C@@H](C)[C@@H]1O [Compound 78, (2S,3aR,4R,5R,7S,8S,9R,9aS,12R)-2,8-dihydroxy-4,7,9,12-tetramethyl-3-oxo-7-vinyldecahydro-4,9a-propanocyclopenta[8]annulen-5-yl 2-((1-hydroxy-2-(methylsulfonyl)-1,2-dihydrobenzo[d][1,2,3]diazaborinin-7-yl)oxy)acetate] | 0.5 to 2 (≈ 0.811 to 3.24 µM) | 7.89 | 0.5 to 2 (≈ 0.811 to 3.24 µM) | – | – | –
C=C[C@]1(C)C[C@@H](OC(=O)COc2ccc3c(c2)B(O)OC3CC(=O)OC)[C@]2(C)[C@H](C)CC[C@]3(CCC(=O)[C@H]32)[C@@H](C)[C@@H]1O (stereo partly drawn) [Compound 26, (3aR,4R,5R,7S,8S,9R,9aS,12R)-8-hydroxy-4,7,9,12-tetramethyl-3-oxo-7-vinyldecahydro-4,9a-propanocyclopenta[8]annulen-5-yl 2-((1-hydroxy-3-(2-methoxy-2-oxoethyl)-1,3-dihydrobenzo[c][1,2]oxaborol-6-yl)oxy)acetate] | 0.5 to 2 (≈ 0.858 to 3.43 µM) | < 6.00 | < 0.25 | – | – | –
C=C[C@]1(C)C[C@@H](OC(=O)COc2ccc3c(c2F)B(O)NN=C3)[C@]2(C)[C@H](C)CC[C@]3(CCC(=O)[C@H]32)[C@@H](C)[C@@H]1O [Compound 81, (3aR,4R,5R,7S,8S,9R,9aS,12R)-8-hydroxy-4,7,9,12-tetramethyl-3-oxo-7-vinyldecahydro-4,9a-propanocyclopenta[8]annulen-5-yl 2-((8-fluoro-1-hydroxy-1,2-dihydrobenzo[d][1,2,3]diazaborinin-7-yl)oxy)acetate] | – | – | – | < 0.25 | 7.47 | < 0.25
C=C[C@]1(C)C[C@@H](OC(=O)COc2ccc(C3=CCOB3O)cc2)[C@]2(C)[C@H](C)CC[C@]3(CCC(=O)[C@H]32)[C@@H](C)[C@@H]1O [Compound 103, (3aR,4R,5R,7S,8S,9R,9aS,12R)-8-hydroxy-4,7,9,12-tetramethyl-3-oxo-7-vinyldecahydro-4,9a-propanocyclopenta[8]annulen-5-yl 2-(4-(2-hydroxy-2,5-dihydro-1,2-oxaborol-3-yl)phenoxy)acetate] | < 0.25 | 6.38 | < 0.25 | – | – | –
C=C[C@]1(C)C[C@@H](OC(=O)COc2cc3c(cc2F)COB3O)[C@]2(C)[C@H](C)CC[C@]3(C[C@H](O)C(=O)[C@H]32)[C@@H](C)[C@@H]1O [Compound 37, (2S,3aR,4R,5R,7S,8S,9R,9aS,12R)-2,8-dihydroxy-4,7,9,12-tetramethyl-3-oxo-7-vinyldecahydro-4,9a-propanocyclopenta[8]annulen-5-yl 2-((5-fluoro-1-hydroxy-1,3-dihydrobenzo[c][1,2]oxaborol-6-yl)oxy)acetate] | 0.5 to 2 (≈ 0.918 to 3.67 µM) | 7.28 | < 0.25 | – | – | –
C=C[C@]1(C)C[C@@H](OC(=O)CNc2ccc3c(c2)B(O)OC32CCNCC2)[C@]2(C)[C@H](C)CC[C@]3(CCC(=O)[C@H]32)[C@@H](C)[C@@H]1O [Compound 53, (3aR,4R,5R,7S,8S,9R,9aS,12R)-8-hydroxy-4,7,9,12-tetramethyl-3-oxo-7-vinyldecahydro-4,9a-propanocyclopenta[8]annulen-5-yl (1-hydroxy-1H-spiro[benzo[c][1,2]oxaborole-3,4′-piperidin]-6-yl)glycinate] | 0.5 to 2 (≈ 0.864 to 3.46 µM) | < 6.00 | 4 to 32 (≈ 6.91 to 55.3 µM) | – | – | –
